Data reported in patent publication US11034685B2, “Aminopyridine derivatives as TAM family kinase inhibitors” (SignalChem Lifesciences Corporation, priority 2013, dated 2021).

What was measured:
Format in all cases: biochemical
human Axl (473-end) = target: T1, human Axl (473-end) (Homo sapiens, UniProt P30530); assay: Kinase enzymatic activity assay ([33P]-ATP phosphate transfer), Axl; settings: inhibitory activity on Axl; class symbols
T1 construct: GST (N); made in house; host or cells: Sf9 insect cells (baculovirus)
T1 sequence (P30530 473-894 limits assumed): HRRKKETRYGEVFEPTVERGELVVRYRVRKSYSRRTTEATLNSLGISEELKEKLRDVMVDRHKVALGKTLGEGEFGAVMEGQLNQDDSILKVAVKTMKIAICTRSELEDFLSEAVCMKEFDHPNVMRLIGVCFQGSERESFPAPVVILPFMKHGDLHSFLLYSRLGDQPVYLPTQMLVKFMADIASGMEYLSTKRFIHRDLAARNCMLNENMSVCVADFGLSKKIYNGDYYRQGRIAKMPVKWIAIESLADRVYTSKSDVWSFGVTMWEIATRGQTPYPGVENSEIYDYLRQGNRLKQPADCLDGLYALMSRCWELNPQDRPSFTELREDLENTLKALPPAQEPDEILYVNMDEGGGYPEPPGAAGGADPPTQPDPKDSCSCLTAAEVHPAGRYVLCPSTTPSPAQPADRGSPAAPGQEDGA
Procedure, shortened: (§1)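 Kinases were N-terminal GST-tagged constructs expressed in Sf9 cells, with poly(Glu:Tyr 4:1) as substrate. Reactions ran in MOPS buffer pH 7.2 with MgCl2 and [33P]-ATP (250 μM cocktail stock) for 30 min at room temperature. Filter-bound radioactivity gave % inhibition, and IC50 was taken from serial dilutions.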

human Mer (578-872) = target: T2, human Mer (578-872) (Homo sapiens, UniProt Q12866); assay: Kinase enzymatic activity assay ([33P]-ATP phosphate transfer), Mer; settings: inhibitory activity on Mer; class symbols
T2 construct: GST (N); made in house; host or cells: Sf9 insect cells (baculovirus)
T2 sequence (Q12866 578-872): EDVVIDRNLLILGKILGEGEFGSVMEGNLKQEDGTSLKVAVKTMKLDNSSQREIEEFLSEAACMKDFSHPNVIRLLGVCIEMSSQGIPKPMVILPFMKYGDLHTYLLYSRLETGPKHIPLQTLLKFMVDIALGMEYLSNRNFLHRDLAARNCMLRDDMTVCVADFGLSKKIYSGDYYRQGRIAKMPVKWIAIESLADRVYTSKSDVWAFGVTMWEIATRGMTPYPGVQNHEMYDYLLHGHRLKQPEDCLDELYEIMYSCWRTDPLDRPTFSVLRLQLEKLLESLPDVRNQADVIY
Procedure, shortened: as §1

[1] = target: T3, Recombinant human Tyro3 (455-end) (Homo sapiens, UniProt Q06418); assay: Kinase enzymatic activity assay ([33P]-ATP phosphate transfer), Tyro3; settings: inhibitory activity on Tyro3; class symbols
T3 construct: GST (N); made in house; host or cells: Sf9 insect cells (baculovirus)
T3 sequence (Q06418 455-890 limits assumed): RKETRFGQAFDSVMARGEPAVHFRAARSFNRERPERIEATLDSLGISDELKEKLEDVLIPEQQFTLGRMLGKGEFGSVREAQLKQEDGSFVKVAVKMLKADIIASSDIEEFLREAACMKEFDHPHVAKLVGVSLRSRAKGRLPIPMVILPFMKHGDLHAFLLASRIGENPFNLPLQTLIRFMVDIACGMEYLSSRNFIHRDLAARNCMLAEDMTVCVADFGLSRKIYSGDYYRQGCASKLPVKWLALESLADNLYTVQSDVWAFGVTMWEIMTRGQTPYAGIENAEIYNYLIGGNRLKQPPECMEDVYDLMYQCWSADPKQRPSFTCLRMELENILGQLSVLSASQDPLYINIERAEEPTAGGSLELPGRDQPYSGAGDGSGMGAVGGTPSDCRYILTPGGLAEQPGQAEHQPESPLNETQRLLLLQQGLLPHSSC
Procedure, shortened: as §1

Row | SMILES | IC50 (human Axl (473-end)) [nM] | IC50 (human Mer (578-872)) [nM] | IC50 [1] [nM]
1 | Nc1ncc(-c2cnn(C3CCN(C(=O)c4ccccc4)CC3)c2)cc1-c1nnc(-c2c(Cl)cccc2Cl)o1 [(4-(4-(6-amino-5-(5-(2,6-dichlorophenyl)-1,3,4-oxadiazol-2-yl)pyridin-3-yl)-1H-pyrazol-1-yl)piperidin-1-yl)(phenyl)methanone] | < 500 | < 500 | < 500
2 | Nc1ncc(-c2cnn(C3CCN(C(=O)c4ccc(F)cc4)CC3)c2)cc1-c1ncc(-c2cccc(Cl)c2)o1 [(4-(4-(6-amino-5-(5-(3-chlorophenyl)oxazol-2-yl)pyridin-3-yl)-1H-pyrazol-1-yl)piperidin-1-yl)(4-fluorophenyl)methanone] | < 500 | 1000 to 10000 | < 500
3 | Nc1ncc(-c2cnn(C3CCN(C(=O)C4CC4)CC3)c2)cc1-c1ncc(-c2cccc(Cl)c2)o1 [(4-(4-(6-amino-5-(5-(3-chlorophenyl)oxazol-2-yl)pyridin-3-yl)-1H-pyrazol-1-yl)piperidin-1-yl)(cyclopropyl)methanone] | < 500 | 1000 to 10000 | 500 to 1000
4 | Nc1ncc(-c2cnn(C3CCN(C(=O)C4CC4)CC3)c2)cc1-c1ncc(-c2ccc(Cl)cc2)o1 [(4-(4-(6-amino-5-(5-(4-chlorophenyl)oxazol-2-yl)pyridin-3-yl)-1H-pyrazol-1-yl)piperidin-1-yl)(cyclopropyl)methanone] | < 500 | > 10000 | < 500
5 | Nc1ncc(-c2cnn(C3CCN(C(=O)c4ccccc4)CC3)c2)cc1-c1ncc(-c2ccc(Cl)cc2)o1 [(4-(4-(6-amino-5-(5-(4-chlorophenyl)oxazol-2-yl)pyridin-3-yl)-1H-pyrazol-1-yl)piperidin-1-yl)(phenyl)methanone] | < 500 | 1000 to 10000 | < 500
6 | CC(C)(C)OC(=O)N1CCC(n2cc(-c3cnc(N)c(-c4nnc(-c5nc(C(F)(F)F)cs5)o4)c3)cn2)CC1 [tert-butyl 4-(4-(6-amino-5-(5-(4-(trifluoromethyl)-thiazol-2-yl)-1,3,4-oxadiazol-2-yl)pyridin-3-yl)-1H-pyrazol-1-yl)piperidine-1-carboxylate] | < 500 | > 10000 | 1000 to 10000
7 | CC(C)(C)OC(=O)N1CCC(n2cc(-c3cnc(N)c(-c4ncc(-c5ccc(Cl)cc5)o4)c3)cn2)CC1 [tert-butyl 4-(4-(6-amino-5-(5-(4-chlorophenyl)oxazol-2-yl)pyridin-3-yl)-1H-pyrazol-1-yl)piperidine-1-carboxylate] | 500 to 1000 | 1000 to 10000 | 1000 to 10000
8 | CC(C)(C)OC(=O)N1CCC(n2cc(-c3cnc(N)c(-c4nnc(-c5ccc(F)cc5)o4)c3)cn2)CC1 [tert-butyl 4-(4-(6-amino-5-(5-(4-fluorophenyl)-1,3,4-oxadiazol-2-yl)pyridin-3-yl)-1H-pyrazol-1-yl)piperidine-1-carboxylate] | 1000 to 10000 | 1000 to 10000 | 1000 to 10000
9 | CC(C)(C)OC(=O)N1CCC(n2cc(-c3cnc(N)c(-c4nnc(CC5CC5)o4)c3)cn2)CC1 [tert-butyl 4-(4-(6-amino-5-(5-(cyclopropylmethyl)-1,3,4-oxadiazol-2-yl)pyridin-3-yl)-1H-pyrazol-1-yl)piperidine-1-carboxylate] | < 500 | 500 to 1000 | 1000 to 10000
10 | CC(C)(C)OC(=O)N1CCC(n2cc(-c3cnc(N)c(-c4nnc(-c5cnccn5)o4)c3)cn2)CC1 [tert-butyl 4-(4-(6-amino-5-(5-(pyrazin-2-yl)-1,3,4-oxadiazol-2-yl)pyridin-3-yl)-1H-pyrazol-1-yl)piperidine-1-carboxylate] | < 500 | 1000 to 10000 | 1000 to 10000
11 | CC(C)(C)OC(=O)N1CCC(n2cc(-c3cnc(N)c(-c4nnc(-c5ccccn5)o4)c3)cn2)CC1 [tert-butyl 4-(4-(6-amino-5-(5-(pyridin-2-yl)-1,3,4-oxadiazol-2-yl)pyridin-3-yl)-1H-pyrazol-1-yl)piperidine-1-carboxylate] | < 500 | 1000 to 10000 | 1000 to 10000
12 | CC(C)(C)OC(=O)N1CCC(n2cc(-c3cnc(N)c(-c4nnc(-c5cccnc5)o4)c3)cn2)CC1 [tert-butyl 4-(4-(6-amino-5-(5-(pyridin-3-yl)-1,3,4-oxadiazol-2-yl)pyridin-3-yl)-1H-pyrazol-1-yl)piperidine-1-carboxylate] | 500 to 1000 | 1000 to 10000 | 1000 to 10000
13 | CC(C)(C)OC(=O)N1CCC(n2cc(-c3cnc(N)c(-c4nnc(-c5nccs5)o4)c3)cn2)CC1 [tert-butyl 4-(4-(6-amino-5-(5-(thiazol-2-yl)-1,3,4-oxadiazol-2-yl)pyridin-3-yl)-1H-pyrazol-1-yl)piperidine-1-carboxylate] | 500 to 1000 | 1000 to 10000 | 1000 to 10000
14 | CC(C)(C)OC(=O)N1CCC(n2cc(-c3cnc(N)c(-c4nnc(Cc5ccccc5)o4)c3)cn2)CC1 [tert-butyl 4-(4-(6-amino-5-(5-benzyl-1,3,4-oxadiazol-2-yl)pyridin-3-yl)-1H-pyrazol-1-yl)piperidine-1-carboxylate] | < 500 | 1000 to 10000 | 1000 to 10000
15 | CC(C)(C)OC(=O)N1CCC(n2cc(-c3cnc(N)c(-c4nnc(-c5ccccc5)o4)c3)cn2)CC1 [tert-butyl 4-(4-(6-amino-5-(5-phenyl-1,3,4-oxadiazol-2-yl)pyridin-3-yl)-1H-pyrazol-1-yl)piperidine-1-carboxylate] | 1000 to 10000 | 1000 to 10000 | 1000 to 10000
16 | CC(C)(C)OC(=O)N1CCC(n2cc(-c3cnc(N)c(-c4ncc(-c5ccccc5)o4)c3)cn2)CC1 [tert-butyl 4-(4-(6-amino-5-(5-phenyloxazol-2-yl)pyridin-3-yl)-1H-pyrazol-1-yl)piperidine-1-carboxylate] | < 500 | 1000 to 10000 | 500 to 1000
